Assay results taken from patent publication US9696323B2, “Biomarkers for chagas disease related cardiomyopathy” (THE BOARD OF REGENTS OF THE UNIVERSITY OF TEXAS SYSTEM, priority 2013, dated 2017).

Tested on: T. cruzi
Experiment: 2D-GE plasma proteome profile (differential protein expression) of T. cruzi-infected rats treated with PBN and/or BZ
Assay type: in vivo, rat
Conditions: plasma
Text: Certain embodiments include biomarkers identified in a previous study. Parasite persistence and oxidative damage in the heart are known to be of pathological significance during Chagas disease (Zacks et al., (2005) An Acad Bras Cienc, 77, 695-715; Gupta et al., (2009) Interdiscip Perspect Infect Dis, 2009, 190354). […] In the previous study the inventors identified 92 proteins that were differentially expressed or oxidized in chagasic plasma. Functional analysis allocated a majority of these proteins to inflammation/immunity and lipid metabolism categories, and to molecular pathways associated with cardiovascular dysfunction, e.g., myocardial infarction, hypertrophy, and fibrosis, and pulmonary embolism and hypertension. Some proteins in chagasic rats treated with PBN and/or BZ were allocated to curative pathways (immune regulation and cardiac remodeling). The 2D-GE results were validated by Western blotting. […] Increased plasma levels of GSN, MYL2, and VIM were directly correlated with the severity of cardiac disease in human chagasic patients. […] These findings have utility in diagnosing disease severity and designing suitable therapy for management of human chagasic patients.
Ingenuity Pathway Analysis (IPA) is a highly curated and comprehensive software used for the integration of proteins into networks and pathways with biological meaning (Thomas and Bonchev, (2010). Hum Genomics, 4, 353-360). Network analysis of the plasma proteome profile of chagasic rats identified four major sub-networks linked to host response to T. cruzi infection and disease development (Table V). The maximal numbers of the differentially expressed plasma proteins (19 proteins) in chagasic rats were associated with antigen presentation and inflammatory response category (Table V) and indicators of persistent inflammation, known to be of pathological significance in Chagas disease (Dhiman et al., (2009) Clinical and Vaccine Immunology, 16, 660-666; Tanowitz et al., (2009) Prog Cardiovasc Dis, 51, 524-539; Junqueira et al., (2010) Expert Rev Mol Med, 12, e29). Following functional analysis of the inflammation-associated proteins, 12 proteins (APOA1, APOE, C3, CFB, CFH, FGB, GSN, KRT10, PLG, SCG2, SERPINA1, and SERPINC1) were identified as being involved in immune cell trafficking and cell movement of leukocytes, granulocytes, phagocytes, neutrophils, and dendritic and antigen presenting cells. Some of the differentially expressed proteins in inflammation category were associated with activation (APOE, C3, CFH, GC and PLG), chemotaxis (C3, SCG2, SERPINA1, SERPINC1), and infiltration of leukocytes (APOA1, APOE, C3, PLG, KRT10) and neutrophils (C3, CFB, CFH, PLG). Up regulation of APOE, APOA1, APOH, GC and PLG in chagasic plasma was indicative of activation, binding and accumulation of macrophages in the disease state. Of the 19 differentially expressed inflammation-associated proteins, 11 proteins (APOE, C3, CFB, CFH, GSN, KRT10, SCG2, SERPINA1, SERPINC1, GC, and PLG) were carbonylated in chagasic plasma. […] Other proteins (APOE, C3, KRT3, and SCG2) were exposed to oxidation due to T. cruzi-induced, acute oxidative stress, but were normalized in expression and oxidation during the chronic phase.
Seventeen of the differentially expressed proteins in chagasic plasma, i.e., AFM, C4BPA, CACNA1D, DLGAP2, GC, KNG1, MUG1, MYLPF, MY05A, MY05B, PRPH, PZP, RAI14, and SCG2, were allotted to the lipid metabolism/molecular transport/small molecule biochemistry category (Table V) and functionally linked by IPA network analysis to lipid, fatty acid, and carbohydrate metabolism. A majority of the proteins in this category, i.e., ALB, APOA1, APOA4, APOE, APOH, C3, GC, GNAQ, MY05A, PLG, SCD2, SERPINA1, SERPINC1 and VIM, were linked to the synthesis, metabolism, transport, and modification of lipids and fatty acids, and to uptake and release or efflux of lipids, eicosanoids, and cholesterol. […]

[1] = RCP/RCB/RCPB groups (chronic infection)

CC(C)(C)/[N+]([O-])=C/c1ccccc1 [PBN]
Spot# 979 Average Normalized Density × 100,000 (RAP group (acute infection)): 59.46
Spot# 992 Average Normalized Density × 100,000 (RAP group (acute infection)): 34.51
Spot# 12, 180 Average Normalized Density × 100,000 [1]: 7.22
Spot# 34 Average Normalized Density × 100,000 [1]: 0.45
Spot# 37, 593 Average Normalized Density × 100,000 [1]: 6.48
Spot# 49, 673 Average Normalized Density × 100,000 [1]: 13.39
Spot# 52, 54, 302 Average Normalized Density × 100,000 [1]: 14.45
Spot# 53, 225 Average Normalized Density × 100,000 [1]: 15.12
Spot# 72 Average Normalized Density × 100,000 [1]: 16.43
Spot# 73, 705, 787 Average Normalized Density × 100,000 [1]: 38.67
Spot# 77 Average Normalized Density × 100,000 [1]: 8.675
Spot# 88 Average Normalized Density × 100,000 [1]: 40.49
Spot# 94 Average Normalized Density × 100,000 [1]: 2.55
Spot# 115, 123 Average Normalized Density × 100,000 [1]: 10.96
Spot# 149 Average Normalized Density × 100,000 [1]: 4.39
Spot# 153 Average Normalized Density × 100,000 [1]: 10.34
Spot# 177 Average Normalized Density × 100,000 [1]: 1.60
Spot# 181 Average Normalized Density × 100,000 [1]: 1.90
Spot# 184, 257, 328 Average Normalized Density × 100,000 [1]: 5.85
Spot# 207, 555 Average Normalized Density × 100,000 [1]: 9.12
Spot# 215 Average Normalized Density × 100,000 [1]: 1.97
Spot# 266 Average Normalized Density × 100,000 [1]: 0.54
Spot# 299 Average Normalized Density × 100,000 [1]: 1.17
Spot# 315 Average Normalized Density × 100,000 [1]: 8.23
Spot# 334 Average Normalized Density × 100,000 [1]: 0.71
Spot# 341 Average Normalized Density × 100,000 [1]: 1.10
Spot# 355, 359 Average Normalized Density × 100,000 [1]: 2.20
Spot# 382, 385, 378, 572, 578, 595 Average Normalized Density × 100,000 [1]: 3.29
Spot# 389 Average Normalized Density × 100,000 [1]: 4.32
Spot# 430 Average Normalized Density × 100,000 [1]: 8.21
Spot# 434, 678 Average Normalized Density × 100,000 [1]: 24.63
Spot# 439 Average Normalized Density × 100,000 [1]: 14.99
Spot# 452 Average Normalized Density × 100,000 [1]: 10.01
Spot# 464 Average Normalized Density × 100,000 [1]: 6.65
Spot# 479 Average Normalized Density × 100,000 [1]: 32.56
Spot# 493 Average Normalized Density × 100,000 [1]: 13.46
Spot# 515 Average Normalized Density × 100,000 [1]: 7.78
Spot# 524 Average Normalized Density × 100,000 [1]: 21.96
Spot# 551, 587, 908 Average Normalized Density × 100,000 [1]: 54.1
Spot# 559 Average Normalized Density × 100,000 [1]: 27.58
Spot# 571 Average Normalized Density × 100,000 [1]: 38.63
Spot# 576, 620 Average Normalized Density × 100,000 [1]: 16.66
Spot# 586, 614 Average Normalized Density × 100,000 [1]: 38.00
Spot# 592 Average Normalized Density × 100,000 [1]: 31.55
Spot# 604 Average Normalized Density × 100,000 [1]: 23.66
Spot# 606 Average Normalized Density × 100,000 [1]: 5.58
Spot# 627 Average Normalized Density × 100,000 [1]: 54.85
Spot# 638 Average Normalized Density × 100,000 [1]: 5.92
Spot# 649 Average Normalized Density × 100,000 [1]: 37.11
Spot# 651 Average Normalized Density × 100,000 [1]: 57.85
Spot# 655 Average Normalized Density × 100,000 [1]: 149.20
Spot# 672 Average Normalized Density × 100,000 [1]: 17.65
Spot# 676 Average Normalized Density × 100,000 [1]: 42.59
Spot# 691 Average Normalized Density × 100,000 [1]: 16.29
Spot# 715 Average Normalized Density × 100,000 [1]: 32.20
Spot# 724 Average Normalized Density × 100,000 [1]: 2.23
Spot# 728 Average Normalized Density × 100,000 [1]: 1.13
Spot# 733 Average Normalized Density × 100,000 [1]: 2.44
Spot# 740 Average Normalized Density × 100,000 [1]: 7.33
Spot# 745 Average Normalized Density × 100,000 [1]: 3.21
Spot# 749 Average Normalized Density × 100,000 [1]: 1.70
Spot# 766 Average Normalized Density × 100,000 [1]: 6.32
Spot# 779, 909 Average Normalized Density × 100,000 [1]: 6.88
Spot# 796 Average Normalized Density × 100,000 [1]: 8.33
Spot# 814 Average Normalized Density × 100,000 [1]: 1.56
Spot# 817 Average Normalized Density × 100,000 [1]: 29.59
Spot# 820, 1081 Average Normalized Density × 100,000 [1]: 2.20
Spot# 827 Average Normalized Density × 100,000 [1]: 17.80
Spot# 832 Average Normalized Density × 100,000 [1]: 7.55
Spot# 860 Average Normalized Density × 100,000 [1]: 5.79
Spot# 867 Average Normalized Density × 100,000 [1]: 3.00
Spot# 881 Average Normalized Density × 100,000 [1]: 6.68
Spot# 897 Average Normalized Density × 100,000 [1]: 31.94
Spot# 900 Average Normalized Density × 100,000 [1]: 44.00
Spot# 906 Average Normalized Density × 100,000 [1]: 87.74
Spot# 966 Average Normalized Density × 100,000 [1]: 59.29
Spot# 979 Average Normalized Density × 100,000 [1]: 41.38
Spot# 992 Average Normalized Density × 100,000 [1]: 57.94
